Patent US8241674B2, “Methods and compositions for heavy metal detoxification” (priority 2007, dated 2012)
Like-named read-outs stand apart in the source and are kept apart here.

Assays:
NQO1 enzyme = assay: NADPH quinone oxido reductase (NQO1) activity assay in RL-34 cell lysate after treatment; details: RL-34 cells, 2 days, ratio of treated over vehicle control
GST enzyme = assay: GST activity assay in RL-34 cell lysate after treatment; format: cell-based, rat; details: RL-34 cells, 2 days, ratio over DMSO control
[1] = test system: metallothionein (MT 1, 2)
Nrf-2 = assay: Western blot of Nrf-2 in the nuclear fraction of HepG2 cells; format: cell-based, human; details: 4 hours, FIGS. 3 and 4
Procedure: Western blot detection—The HepG2 cell line was cultured as above and test compounds were added for four hours, after which the cells were lysed and the nuclear fraction was isolated (Dignam, J. D., R. M. Lebovitz, and R. G. Roeder, Nucleic Acids Res, 11(5): 1475-89, 1983). Total protein concentration was determined using the Bicinchoninic Acid Kit (Sigma). Total cell lysates (60 μg total protein) were electrophoresed and detection of Nrf-2 was performed using primary antibody incubation overnight at 4° C. (Santa Cruz Biotechnology, Inc, Santa Cruz, Calif.). Secondary antibody linked to horseradish peroxidase was incubated for one h (GE Healthcare, Piscataway, N.J.), after which proteins were visualized using the enhanced chemiluminescence (ECL) system. Densitometry was performed using Kodak Molecular Imaging Software v.4.0 (Eastman Kodak Company, Rochester, N.Y.) measuring the net intensity of the band.

[2] = test system: phase II enzymes (GSTA1 and NQO1)
[3] = test system: heme oxygenase (HO-1) luciferase reporter; assay: Heme oxygenase (HO-1) luciferase reporter in HepG2 cells; details: HepG2 cell line; for Fold Induction of heme oxygenase luciferase activity: 24 hours, ratio over vehicle control, concentration not given; for expression of heme oxygenase promoter activity (in words): thirty percent induction over DMSO control considered active
[4] = HepG2 cells, 8 hours, 25 μg/ml, average of GSTA1 and NQO1

Hyaluronic acid
Induction of NQO1 activity (NQO1 enzyme; 20 ug/mL): 0.9

OCc1c[nH]c2ccccc12 [I3C]
Fold Induction of GST activity (GST enzyme; 25 ug/mL): 1.1 fold
Induction of NQO1 activity (NQO1 enzyme; 25 ug/mL): 2.4

O=C(/C=C/c1ccc(O)c(O)c1)O[C@@H]1C[C@](O)(C(=O)O)C[C@@H](O)[C@H]1O [chlorogenic acid]
Fold Induction of GST activity (GST enzyme; 25 ug/mL): 1.1 fold
Induction of NQO1 activity (NQO1 enzyme; 25 ug/mL): 1.2

Inulin
Induction of NQO1 activity (NQO1 enzyme; 20 ug/mL): 0.9

C[S+]([O-])CCCCN=C=S (stereo not drawn) [Sulforaphane, reference compound]
HMOX1 Ratio to DMSO (heme oxygenase (HMOX1)): 8.82
HMOX1 gene induction (in words) (heme oxygenase (HMOX1)): increased
Fold Induction of GST activity (GST enzyme; 3 ug/mL): 1.8 fold
MT 1,2 (ave) Ratio to DMSO [1]: 0.67
MT gene induction (in words) [1]: but not MT
Nrf-2 nuclear translocation (Nrf-2): dramatic increase
Induction of NQO1 activity (NQO1 enzyme; 3 ug/mL): 3.7
Phase II (ave) Ratio to DMSO [2]: 1.84
phase II gene induction (in words) [2]: increased
Fold Induction of heme oxygenase luciferase activity [3]: 4.2 fold
expression of heme oxygenase promoter activity (in words) [3]: induced

C[C@@H]1O[C@@H](OC[C@H]2O[C@@H](Oc3c(-c4ccc(O)c(O)c4)oc4cc(O)cc(O)c4c3=O)[C@H](O)[C@@H](O)[C@@H]2O)[C@H](O)[C@H](O)[C@H]1O [Rutin]
Fold Induction of GST activity (GST enzyme; 20 ug/mL): 1.0 fold
Induction of NQO1 activity (NQO1 enzyme; 20 ug/mL): 0.9

C[C@]12CC[C@H](O)CC1=CC[C@@H]1[C@@H]2CC[C@]2(C)C(=O)CC[C@@H]12 [DHEA]
Induction of NQO1 activity (NQO1 enzyme; 20 ug/mL): 1.1

O=c1oc2c(O)c3oc(=O)c4c5c(oc(=O)c6cc(O)c(O)c(O)c65)c(O)c5oc(=O)c(c2c2c(O)c(O)c(O)cc12)c3c54 [Terminalin]
Fold Induction of GST activity (GST enzyme; 25 ug/mL): 1.0 fold
Induction of NQO1 activity (NQO1 enzyme; 25 ug/mL): 1.0
Fold Induction of heme oxygenase luciferase activity [3]: 1.7 fold
expression of heme oxygenase promoter activity (in words) [3]: induced

CC1(C)CC[C@]2(C(=O)O)CC[C@]3(C)C(=CC[C@@H]4[C@@]5(C)CC[C@H](O)C(C)(C)[C@@H]5CC[C@]43C)[C@@H]2C1 [Oleanolic acid]
HMOX1 Ratio to DMSO (heme oxygenase (HMOX1); HepG2 cells, 8 hours, 25 μg/ml): 1.88
Fold Induction of GST activity (GST enzyme; 25 ug/mL): 1.0 fold
MT 1,2 (ave) Ratio to DMSO ([1]; HepG2 cells, 8 hours, 25 μg/ml): 2.39
Induction of NQO1 activity (NQO1 enzyme; 25 ug/mL): 1.5
Phase II (ave) Ratio to DMSO [2, 4]: 0.91
Fold Induction of heme oxygenase luciferase activity [3]: 2.7 fold
expression of heme oxygenase promoter activity (in words) [3]: induced

[Cl-].[Cl-].[Zn+2] [ZnCl2]
HMOX1 Ratio to DMSO (heme oxygenase (HMOX1); HepG2 cells, 8 hours, 10 μg/ml): 0.97
MT 1,2 (ave) Ratio to DMSO ([1]; HepG2 cells, 8 hours, 10 μg/ml): 12.43
Phase II (ave) Ratio to DMSO ([2]; HepG2 cells, 8 hours, 10 μg/ml, average of GSTA1 and NQO1): 0.94
Fold Induction of heme oxygenase luciferase activity [3]: 1.5 fold
expression of heme oxygenase promoter activity (in words) [3]: induced

C=C1CC[C@@H]2[C@](C)(CO)[C@H](O)CC[C@@]2(C)[C@@H]1C/C=C1/C(=O)OC[C@H]1O [Andrographis, 3-(2-(Decahydro-6-hydroxy-5-(hydroxymethyl)-5,8a-dimethyl-2-methylenenaphthyl)ethylidene)dihydro-4-hydroxyfuran-2(3H)-one]
HMOX1 Ratio to DMSO (heme oxygenase (HMOX1); HepG2 cells, 8 hours, 25 μg/ml): 2.43
Fold Induction of GST activity (GST enzyme; 25 ug/mL): 1.4 fold
MT 1,2 (ave) Ratio to DMSO ([1]; HepG2 cells, 8 hours, 25 μg/ml): 0.87
Induction of NQO1 activity (NQO1 enzyme; 25 ug/mL): 4.5
Phase II (ave) Ratio to DMSO [2, 4]: 2.29
Fold Induction of heme oxygenase luciferase activity [3]: 4.4 fold

c1ccc2c(Cc3c[nH]c4ccccc34)c[nH]c2c1 [DIM]
Induction of NQO1 activity (NQO1 enzyme; 25 ug/mL): 1.5

CC(C)Oc1ccc2c(=O)c(-c3ccccc3)coc2c1 [Ipriflavone]
Fold Induction of GST activity (GST enzyme; 20 ug/mL): 1.1 fold
Induction of NQO1 activity (NQO1 enzyme; 20 ug/mL): 0.8

CC/C=C\C/C=C\C/C=C\C/C=C\C/C=C\C/C=C\CCC(=O)O [DHA]
Fold Induction of GST activity (GST enzyme; 20 ug/mL): 1.0 fold
Induction of NQO1 activity (NQO1 enzyme; 20 ug/mL): 0.9

Oc1ccc(C=Cc2cc(O)cc(O)c2)cc1 [Resveratrol]
Induction of NQO1 activity (NQO1 enzyme; 20 ug/mL): 2.2

O=C1O[C@H]([C@@H](O)CO)C(O)=C1O [Vitamin C]
Fold Induction of GST activity (GST enzyme; 20 ug/mL): 1.1 fold
Induction of NQO1 activity (NQO1 enzyme; 20 ug/mL): 0.9

O=C([O-])CC(O)(CC(=O)[O-])C(=O)[O-].[K+].[K+].[K+] [K-Citrate]
Fold Induction of GST activity (GST enzyme; 20 ug/mL): 1.1 fold
Induction of NQO1 activity (NQO1 enzyme; 20 ug/mL): 0.9

O=C(CCc1ccc(O)cc1)c1c(O)cc(O)cc1O[C@@H]1O[C@H](CO)[C@@H](O)[C@H](O)[C@H]1O [Phloridzin]
Fold Induction of GST activity (GST enzyme; 20 ug/mL): 1.0 fold
Induction of NQO1 activity (NQO1 enzyme; 20 ug/mL): 1.0

CC(C)=CCC/C(C)=C/CC/C(C)=C/CC/C(C)=C/CC1=C(C)C(=O)c2ccccc2C1=O [Vitamin K2]
Induction of NQO1 activity (NQO1 enzyme; 20 ug/mL): 0.9

COc1cc(O)c(CC=C(C)C)c(O)c1C(=O)/C=C/c1ccc(O)cc1 [Xanthohumol]
HMOX1 Ratio to DMSO (heme oxygenase (HMOX1); HepG2 cells, 8 hours, 1 μg/ml): 1.11
Fold Induction of GST activity (GST enzyme; 1 ug/mL): 1.4 fold
MT 1,2 (ave) Ratio to DMSO ([1]; HepG2 cells, 8 hours, 1 μg/ml): 0.90
Induction of NQO1 activity (NQO1 enzyme; 1 ug/mL): 3.7
Phase II (ave) Ratio to DMSO ([2]; HepG2 cells, 8 hours, 1 μg/ml, average of GSTA1 and NQO1): 1.02
Fold Induction of heme oxygenase luciferase activity [3]: 5.4 fold
expression of heme oxygenase promoter activity (in words) [3]: induced

[Cl][Cd][Cl] [CdCl2, reference compound]
HMOX1 Ratio to DMSO (heme oxygenase (HMOX1); HepG2 cells, 8 hours, 40 uM): 21.23
HMOX1 gene induction (in words) (heme oxygenase (HMOX1); HepG2 cells, controls): induce
MT 1,2 (ave) Ratio to DMSO ([1]; HepG2 cells, 8 hours, 40 uM): 83.31
MT gene induction (in words) ([1]; HepG2 cells, controls): induce
Phase II (ave) Ratio to DMSO ([2]; HepG2 cells, 8 hours, 40 uM, average of GSTA1 and NQO1): 0.94
phase II gene induction (in words) ([2]; HepG2 cells, controls): unable to increase

N[C@H]1C(O)O[C@H](CO)[C@@H](O)[C@@H]1O (stereo partly drawn) [Glucosamine]
Fold Induction of GST activity (GST enzyme; 20 ug/mL): 1.1 fold
Induction of NQO1 activity (NQO1 enzyme; 20 ug/mL): 1.0

O=c1c(-c2ccc(O)cc2)coc2cc(O)cc(O)c12 [Bonistein]
Fold Induction of GST activity (GST enzyme; 20 ug/mL): 1.0 fold
Induction of NQO1 activity (NQO1 enzyme; 20 ug/mL): 1.2

COc1ccc2cc3[n+](cc2c1OC)CCc1cc2c(cc1-3)OCO2 [Berberine]
Fold Induction of GST activity (GST enzyme; 20 ug/mL): 1.0 fold
Induction of NQO1 activity (NQO1 enzyme; 20 ug/mL): 1.4

COc1cc(C=CC(=O)CC(=O)C=Cc2ccc(O)c(OC)c2)ccc1O [Curcumin, 1,7-Bis(4-hydroxy-3-methoxyphenyl)hepta-1,6-diene-3,5-dione]
HMOX1 Ratio to DMSO (heme oxygenase (HMOX1); HepG2 cells, 8 hours, 5 μg/ml): 2.09
Fold Induction of GST activity (GST enzyme; 5 ug/mL): 1.0 fold
MT 1,2 (ave) Ratio to DMSO ([1]; HepG2 cells, 8 hours, 5 μg/ml): 0.90
Induction of NQO1 activity (NQO1 enzyme; 5 ug/mL): 4.6
Phase II (ave) Ratio to DMSO ([2]; HepG2 cells, 8 hours, 5 μg/ml, average of GSTA1 and NQO1): 1.15
Fold Induction of heme oxygenase luciferase activity [3]: 6.1 fold
expression of heme oxygenase promoter activity (in words) [3]: induced

CC1(C)C=Cc2c(ccc3c2OC[C@@H](c2ccc(O)cc2O)C3)O1 [Glabridin]
Fold Induction of GST activity (GST enzyme; 20 ug/mL): 1.0 fold
Induction of NQO1 activity (NQO1 enzyme; 20 ug/mL): 1.0

C/C=C1/[C@H](O[C@@H]2O[C@H](CO)[C@@H](O)[C@H](O)[C@H]2O)OC=C(C(=O)OC)[C@H]1CC(=O)OCCc1ccc(O)c(O)c1 [Oleuropein]
Fold Induction of GST activity (GST enzyme; 20 ug/mL): 1.0 fold
Induction of NQO1 activity (NQO1 enzyme; 20 ug/mL): 1.0

O=c1c(O)c(-c2ccc(O)c(O)c2)oc2cc(O)cc(O)c12 [Quercitin]
Fold Induction of GST activity (GST enzyme; 20 ug/mL): 1.0 fold
Induction of NQO1 activity (NQO1 enzyme; 20 ug/mL): 1.4
